Test results published in the supplement of paper PMC10627819.

What was measured:
Experiment in all cases: fitness (endpoint OD595 vs no drug) (fraction); higher = more growth
S. aureus Newman = system: S. aureus Newman
Method in brief: (§1)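 Cultures at OD595 0.01 were dispensed into 384-well plates in TSB, LB Lennox or CY and incubated at 37 °C. Every 30 min for 14 h, OD595 was read and corrected by the first reading. Fitness is the optical density at entry into stationary phase relative to the robust mean of no-drug control wells, capped at 1.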

S. pneumoniae D39V = system: S. pneumoniae D39V
Method in brief: as §1

S. aureus DSM 20231 = system: S. aureus DSM 20231
Method in brief: as §1

B. subtilis 168 = system: B. subtilis 168
Method in brief: as §1

C/C(=C\C(=O)OCCCCCCCCC(=O)O)C[C@@H]1OC[C@H](C[C@@H]2O[C@H]2[C@@H](C)[C@H](C)O)[C@@H](O)[C@H]1O [Pseudomonic acid] + C[n+]1ccc(-c2cc[n+](C)cc2)cc1 [Paraquat]
fitness, S. aureus Newman, one replicate
Details | first compound 0.0313 µg/mL | first compound 0.0625 µg/mL | first compound 0.125 µg/mL
partner 1.25 µg/mL | 0.0626 | 0.028 | 0.0553
partner 2.5 µg/mL | 0.0649 | 0.0373 | 0.0338
partner 5 µg/mL | 0.082 | 0.0355 | 0.0668

fitness, S. pneumoniae D39V
Details | partner 1.5 µg/mL | partner 3 µg/mL | partner 6 µg/mL
first compound 0.03 µg/mL | 0.988 | 0.919 | 0.931
first compound 0.06 µg/mL | 0.837 | 0.78 | 0.779

N[C@@H]1CONC1=O [Cycloserine D] + CCCCCCCCCC(=O)N[C@@H]1[C@H]([C@@H]([C@H](O[C@H]1OC2=C3C=C4C=C2OC5=C(C=C(C=C5)[C@H]([C@H]6C(=O)N[C@@H](C7=C(C(=CC(=C7)O)OC8[C@H]([C@H]([C@@H]([C@H](O8)CO)O)O)O)C9=C(C=CC(=C9)[C@H](C(=O)N6)NC(=O)[C@@H]4NC(=O)[C@@H]1C2=CC(=CC(=C2)OC2=C(C=CC(=C2)[C@H](C(=O)N[C@H](CC2=CC(=C(O3)C=C2)Cl)C(=O)N1)N)O)O)O)C(=O)O)O[C@H]1[C@@H]([C@H]([C@@H]([C@H](O1)CO)O)O)NC(=O)C)Cl)CO)O)O [Teicoplanin]
fitness, main component drawn
Details | first compound 0.375 µg/mL | first compound 0.75 µg/mL | first compound 1.5 µg/mL
S. aureus DSM 20231, partner 0.1562 µg/mL | ≥ 1 | ≥ 1 | 0.989
S. aureus DSM 20231, partner 0.3125 µg/mL | ≥ 1 | ≥ 1 | ≥ 1
S. aureus DSM 20231, partner 0.625 µg/mL | ≥ 1 | ≥ 1 | ≥ 1
S. aureus Newman, partner 0.1562 µg/mL | ≥ 1 | ≥ 1 | 0.975
S. aureus Newman, partner 0.3125 µg/mL | ≥ 1 | ≥ 1 | ≥ 1
S. aureus Newman, partner 0.625 µg/mL | 0.865 | 0.779 | 0.77

fitness, S. aureus Newman, one replicate, main component drawn
Details | first compound 0.375 µg/mL | first compound 0.75 µg/mL | first compound 1.5 µg/mL
partner 0.62 µg/mL | 0.831 | 0.783 | 0.894
partner 1.24 µg/mL | 0.745 | 0.694 | 0.743
partner 2.48 µg/mL | 0.368 | 0.341 | 0.377

O=C(N[C@H](CO)[C@H](O)c1ccc([N+](=O)[O-])cc1)C(Cl)Cl [Chloramphenicol] + CN(C)[C@@H]1C(O)=C(C(N)=O)C(=O)[C@@]2(O)C(O)=C3C(=O)c4c(O)ccc(Cl)c4[C@@](C)(O)[C@H]3C[C@@H]12 [Chlortetracycline]
S. aureus DSM 20231, partner 0.006 µg/mL, one replicate
Details | fitness
first compound 0.75 µg/mL | 0.62
first compound 1.5 µg/mL | 0.558

fitness, S. aureus DSM 20231
Details | first compound 0.75 µg/mL | first compound 1.5 µg/mL | first compound 3 µg/mL
partner 0.012 µg/mL | 0.476 | – | 0.0949
partner 0.024 µg/mL | 0.288 | – | 0.0799
partner 0.048 µg/mL | – | 0.127 | 0.0661

N[C@@H]1CONC1=O [Cycloserine D] + CN(C)c1cc(NC(=O)CNC(C)(C)C)c(O)c2c1C[C@H]1C[C@H]3[C@H](N(C)C)C(O)=C(C(N)=O)C(=O)[C@@]3(O)C(O)=C1C2=O [Tigecycline]
fitness
Details | first compound 0.125 µg/mL | first compound 0.25 µg/mL | first compound 0.375 µg/mL | first compound 0.5 µg/mL | first compound 0.75 µg/mL | first compound 1.5 µg/mL
B. subtilis 168, partner 0.039 µg/mL | 0.944 | 0.987 | – | ≥ 1 | – | –
B. subtilis 168, partner 0.078 µg/mL | 0.955 | 0.867 | – | 0.912 | – | –
B. subtilis 168, partner 0.156 µg/mL | 0.914 | 0.911 | – | 0.982 | – | –
S. aureus Newman, partner 0.039 µg/mL | – | – | 0.956 | – | 0.936 | 0.931
S. aureus Newman, partner 0.078 µg/mL | – | – | 0.981 | – | ≥ 1 | 0.994
S. aureus Newman, partner 0.156 µg/mL | – | – | 0.986 | – | 0.983 | 0.971

fitness, B. subtilis 168, one replicate
Details | first compound 0.125 µg/mL | first compound 0.25 µg/mL | first compound 0.5 µg/mL
partner 0.125 µg/mL | ≥ 1 | ≥ 1 | 0.994
partner 0.25 µg/mL | ≥ 1 | 0.97 | 0.922
partner 0.5 µg/mL | 0.944 | 0.94 | ≥ 1

CCC[C@@H]1C[C@@H](C(=O)N[C@@H]([C@H]2O[C@H](SC)[C@H](O)[C@@H](O)[C@H]2O)[C@@H](C)O)N(C)C1 [Lincomycin] + CO[C@@]12[C@H](COC(N)=O)C3=C(C(=O)C(C)=C(N)C3=O)N1C[C@@H]1N[C@@H]12 [Mitomycin C]
Details | fitness
S. aureus DSM 20231, first compound 0.1 µg/mL, partner 0.0156 µg/mL | 0.645
S. aureus DSM 20231, first compound 0.1 µg/mL, partner 0.0312 µg/mL | 0.651
S. aureus DSM 20231, first compound 0.1 µg/mL, partner 0.0625 µg/mL | 0.502
S. aureus DSM 20231, first compound 0.2 µg/mL, partner 0.0156 µg/mL | 0.613
S. aureus DSM 20231, first compound 0.2 µg/mL, partner 0.0312 µg/mL | 0.567
S. aureus DSM 20231, first compound 0.2 µg/mL, partner 0.0625 µg/mL | 0.383
S. aureus DSM 20231, first compound 0.4 µg/mL, partner 0.0156 µg/mL | 0.217
S. aureus DSM 20231, first compound 0.4 µg/mL, partner 0.0312 µg/mL | 0.199
S. aureus DSM 20231, first compound 0.4 µg/mL, partner 0.0625 µg/mL | 0.108
S. pneumoniae D39V, first compound 0.2 µg/mL, partner 0.001075 µg/mL | 0.679
S. pneumoniae D39V, first compound 0.2 µg/mL, partner 0.00215 µg/mL | 0.69
S. pneumoniae D39V, first compound 0.2 µg/mL, partner 0.0043 µg/mL | 0.603
S. pneumoniae D39V, first compound 0.215 µg/mL, partner 0.002 µg/mL | 0.709
S. pneumoniae D39V, first compound 0.215 µg/mL, partner 0.004 µg/mL | 0.73
S. pneumoniae D39V, first compound 0.215 µg/mL, partner 0.008 µg/mL | 0.657
S. pneumoniae D39V, first compound 0.4 µg/mL, partner 0.001075 µg/mL | 0.605
S. pneumoniae D39V, first compound 0.4 µg/mL, partner 0.00215 µg/mL | 0.609
S. pneumoniae D39V, first compound 0.4 µg/mL, partner 0.0043 µg/mL | 0.497
S. pneumoniae D39V, first compound 0.43 µg/mL, partner 0.002 µg/mL | 0.615
S. pneumoniae D39V, first compound 0.43 µg/mL, partner 0.004 µg/mL | 0.614
S. pneumoniae D39V, first compound 0.43 µg/mL, partner 0.008 µg/mL | 0.514
S. pneumoniae D39V, first compound 0.8 µg/mL, partner 0.001075 µg/mL | 0.221
S. pneumoniae D39V, first compound 0.8 µg/mL, partner 0.00215 µg/mL | 0.218
S. pneumoniae D39V, first compound 0.8 µg/mL, partner 0.0043 µg/mL | 0.131
S. pneumoniae D39V, first compound 0.86 µg/mL, partner 0.002 µg/mL | 0.246
S. pneumoniae D39V, first compound 0.86 µg/mL, partner 0.004 µg/mL | 0.258
S. pneumoniae D39V, first compound 0.86 µg/mL, partner 0.008 µg/mL | 0.266

O=C(N[C@H](CO)[C@H](O)c1ccc([N+](=O)[O-])cc1)C(Cl)Cl [Chloramphenicol] + CO/N=C(\C(=O)N[C@@H]1C(=O)N2C(C(=O)O)=C(COC(C)=O)CS[C@H]12)c1csc(N)n1 [Cefotaxime]
fitness
Details | first compound 0.75 µg/mL | first compound 1.5 µg/mL | first compound 3 µg/mL
S. aureus DSM 20231, partner 0.039 µg/mL | 0.649 | 0.629 | 0.137
S. aureus DSM 20231, partner 0.078 µg/mL | 0.672 | 0.618 | 0.191
S. aureus DSM 20231, partner 0.156 µg/mL | 0.641 | 0.599 | 0.194
S. aureus Newman, partner 0.078 µg/mL | 0.534 | 0.321 | 0.136
S. aureus Newman, partner 0.156 µg/mL | 0.406 | 0.206 | 0.0948
S. aureus Newman, partner 0.312 µg/mL | 0.198 | 0.0711 | 0.065

fitness, one replicate
Details | first compound 0.75 µg/mL | first compound 1.5 µg/mL | first compound 3 µg/mL
S. aureus DSM 20231, partner 0.312 µg/mL | 0.607 | 0.586 | 0.227
S. aureus Newman, partner 0.625 µg/mL | 0.0565 | 0.0229 | 0.0195
S. aureus Newman, partner 1.25 µg/mL | 0.0337 | 0.0237 | 0.0515
S. aureus Newman, partner 2.5 µg/mL | 0.0674 | 0.0266 | 0.0651
